From patent US20260217767A1, “NOVEL A4B7 THIOETHER PEPTIDE DIMER ANTAGONISTS” (Protagonist Therapeutics, Inc., priority 2014, published 2026) come the findings set out here.

Like-named read-outs stand apart in the source and are kept apart here. Where a SMILES comes first, the peptide text is derived from it.

The assay has as its target T1, rh integrin α4β7 (Homo sapiens, UniProt P13612+P26010).
T1 construct: purchased R&D Systems 5397-A30
T1 sequence (P13612 34-977 limits assumed): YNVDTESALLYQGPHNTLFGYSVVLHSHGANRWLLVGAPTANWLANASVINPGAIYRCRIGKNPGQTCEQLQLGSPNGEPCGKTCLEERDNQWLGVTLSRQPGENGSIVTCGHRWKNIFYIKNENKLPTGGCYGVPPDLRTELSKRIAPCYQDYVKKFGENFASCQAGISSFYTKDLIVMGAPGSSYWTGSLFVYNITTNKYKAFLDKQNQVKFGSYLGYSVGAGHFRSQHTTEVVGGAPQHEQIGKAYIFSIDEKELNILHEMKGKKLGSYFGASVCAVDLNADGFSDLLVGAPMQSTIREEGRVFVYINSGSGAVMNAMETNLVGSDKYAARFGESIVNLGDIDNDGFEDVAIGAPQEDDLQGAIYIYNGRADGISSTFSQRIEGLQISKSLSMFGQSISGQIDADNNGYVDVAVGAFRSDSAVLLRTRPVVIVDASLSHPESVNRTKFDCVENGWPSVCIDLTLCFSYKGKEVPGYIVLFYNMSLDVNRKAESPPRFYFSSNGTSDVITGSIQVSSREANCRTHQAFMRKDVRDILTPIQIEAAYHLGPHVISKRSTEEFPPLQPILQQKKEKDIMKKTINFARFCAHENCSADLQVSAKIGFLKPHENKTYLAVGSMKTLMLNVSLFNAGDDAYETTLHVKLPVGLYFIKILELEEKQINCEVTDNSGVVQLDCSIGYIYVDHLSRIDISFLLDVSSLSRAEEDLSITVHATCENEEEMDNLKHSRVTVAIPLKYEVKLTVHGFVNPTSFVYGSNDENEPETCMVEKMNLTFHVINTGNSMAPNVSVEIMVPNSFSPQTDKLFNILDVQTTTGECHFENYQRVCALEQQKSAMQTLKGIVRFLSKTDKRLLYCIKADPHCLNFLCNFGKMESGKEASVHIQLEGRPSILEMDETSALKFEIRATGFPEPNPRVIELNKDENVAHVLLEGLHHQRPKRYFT
T1 sequence (P26010 20-723 limits assumed): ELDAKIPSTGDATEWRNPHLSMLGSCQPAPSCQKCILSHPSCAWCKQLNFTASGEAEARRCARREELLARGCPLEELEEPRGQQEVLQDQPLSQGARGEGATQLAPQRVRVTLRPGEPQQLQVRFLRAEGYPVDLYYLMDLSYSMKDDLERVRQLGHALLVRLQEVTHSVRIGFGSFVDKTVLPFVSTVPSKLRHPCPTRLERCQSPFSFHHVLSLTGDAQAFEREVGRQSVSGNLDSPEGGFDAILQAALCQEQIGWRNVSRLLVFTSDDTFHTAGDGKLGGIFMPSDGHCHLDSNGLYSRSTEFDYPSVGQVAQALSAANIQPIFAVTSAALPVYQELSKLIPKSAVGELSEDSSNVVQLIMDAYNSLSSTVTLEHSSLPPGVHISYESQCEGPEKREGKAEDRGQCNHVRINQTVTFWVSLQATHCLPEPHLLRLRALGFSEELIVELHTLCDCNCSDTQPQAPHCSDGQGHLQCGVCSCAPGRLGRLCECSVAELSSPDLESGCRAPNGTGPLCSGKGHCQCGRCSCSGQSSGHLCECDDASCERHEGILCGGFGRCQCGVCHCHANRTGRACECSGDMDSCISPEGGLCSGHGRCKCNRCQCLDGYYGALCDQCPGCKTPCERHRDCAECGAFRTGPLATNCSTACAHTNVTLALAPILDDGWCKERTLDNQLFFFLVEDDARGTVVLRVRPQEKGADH
The assay can be described thus: α4β7-MAdCAM Competition ELISA. The settings on record: read-out: ELISA A4B7. The assay is classed as binding. The method, boiled down: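 Recombinant human α4β7 captured on nickel-coated plates, then incubated 1 h at room temperature with serially diluted peptides (final top 10 μM) and 10 nM final MAdCAM-1 in Tris pH 7.6 buffer with 1 mM MnCl2 or MgCl2. Bound MAdCAM-1 detected with anti-human IgG1-HRP and TMB, absorbance at 450 nm.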
On the technique in general: An ELISA detects its analyte on a solid surface through an enzyme-linked reagent.

Where [1] appears, read: thioether monomer peptides, Table 6.

On to `CC(C)C[C@@H]1NC(=O)[C@H]([C@@H](C)O)NC(=O)[C@H](CC(=O)O)NC(=O)[C@H](CO)NC(=O)[C@H](CCCNC(=N)N)N(C)C(=O)C(C)SC[C@@H](C(=O)N[C@@H](Cc2c[nH]c3ccccc23)C(=O)N[C@H](CCCCN)C(N)=O)NC1=O` (single isomer, unassigned) [compound 144], for which the IC50 (thioether peptide dimers, Table 7) is below 25 nM.
As to `CC(C)C[C@@H]1NC(=O)[C@H]([C@@H](C)O)NC(=O)[C@H](CC(=O)O)NC(=O)[C@H](CO)NC(=O)[C@H](CCCNC(=N)N)N(C)C(=O)c2ccccc2CSC[C@@H](C(=O)N[C@@H](Cc2c[nH]c3ccccc23)C(=O)N[C@@H](CCC(=O)O)C(=O)N[C@H](CCCCN)C(N)=O)NC1=O` [compound 55] (HELM PEPTIDE1{[meR].S.D.T.L.C.W.E.[dK].[am]}|CHEM1{[O=C(c1ccccc1C[*:2])[*:1]]}$PEPTIDE1,CHEM1,1:R1-1:R1|PEPTIDE1,CHEM1,6:R3-1:R2$$$V2.0), the IC50 under setting [1] is below 25 nM.
Still for that read-out and setting: next, `CC(C)C[C@@H]1NC(=O)[C@H]([C@@H](C)O)NC(=O)[C@H](CC(=O)O)NC(=O)[C@H](CO)NC(=O)[C@H](CCCNC(=N)N)N(C)C(=O)c2ccccc2CSC(C)(C)[C@@H](C(=O)N[C@@H](Cc2cccc3ccccc23)C(=O)N[C@H](CCC(=O)O)C(=O)N(C)[C@@H](CCCCN)C(N)=O)NC1=O` [compound 69] (HELM PEPTIDE1{[meR].S.D.T.L.[Pen].[O=C([C@H](Cc1cccc2ccccc12)N[*:1])[*:2]].[dE].[meK].[am]}|CHEM1{[O=C(c1ccccc1C[*:2])[*:1]]}$PEPTIDE1,CHEM1,1:R1-1:R1|PEPTIDE1,CHEM1,6:R3-1:R2$$$V2.0): below 25 nM; `CC(=O)NCCCC[C@@H](NC(=O)[C@H](CCC(=O)O)NC(=O)[C@H](Cc1c[nH]c2ccccc12)NC(=O)[C@H]1NC(=O)[C@H](CC(C)C)NC(=O)[C@H]([C@@H](C)O)NC(=O)[C@H](CC(=O)O)NC(=O)[C@H](CO)NC(=O)[C@H](CCCNC(=N)N)N(C)C(=O)c2ccccc2CSC1(C)C)C(N)=O` [compound 80] (HELM PEPTIDE1{[meR].S.D.T.L.[Pen].W.E.[dK].[am]}|PEPTIDE2{[ac]}|CHEM1{[O=C(c1ccccc1C[*:2])[*:1]]}$PEPTIDE1,PEPTIDE2,9:R3-1:R2|PEPTIDE1,CHEM1,1:R1-1:R1|PEPTIDE1,CHEM1,6:R3-1:R2$$$V2.0): below 25 nM.
For `CC(=O)NCCCC[C@@H](NC(=O)[C@@H](CCC(=O)O)NC(=O)[C@H](Cc1c[nH]c2ccccc12)NC(=O)[C@H]1NC(=O)[C@H](CC(C)C)NC(=O)[C@H]([C@@H](C)O)NC(=O)[C@H](CC(=O)O)NC(=O)[C@H](CO)NC(=O)[C@H](CCCNC(=N)N)N(C)C(=O)c2ccccc2CSC1(C)C)C(N)=O` [compound 81] (HELM PEPTIDE1{[meR].S.D.T.L.[Pen].W.[dE].[dK].[am]}|PEPTIDE2{[ac]}|CHEM1{[O=C(c1ccccc1C[*:2])[*:1]]}$PEPTIDE1,PEPTIDE2,9:R3-1:R2|PEPTIDE1,CHEM1,1:R1-1:R1|PEPTIDE1,CHEM1,6:R3-1:R2$$$V2.0), under setting [1], the IC50 is below 25 nM.
`CC(=O)NCCCC[C@@H](NC(=O)[C@H](CCC(=O)O)NC(=O)[C@H](Cc1cccc2ccccc12)NC(=O)[C@H]1NC(=O)[C@H](CC(C)C)NC(=O)[C@H]([C@@H](C)O)NC(=O)[C@H](CC(=O)O)NC(=O)[C@H](CO)NC(=O)[C@H](CCCNC(=N)N)N(C)C(=O)c2ccccc2CSC1(C)C)C(N)=O` [compound 89] (HELM PEPTIDE1{[meR].S.D.T.L.[Pen].[O=C([C@H](Cc1cccc2ccccc12)N[*:1])[*:2]].E.[dK].[am]}|PEPTIDE2{[ac]}|CHEM1{[O=C(c1ccccc1C[*:2])[*:1]]}$PEPTIDE1,PEPTIDE2,9:R3-1:R2|PEPTIDE1,CHEM1,1:R1-1:R1|PEPTIDE1,CHEM1,6:R3-1:R2$$$V2.0): the IC50 under setting [1] is below 25 nM.
Same read-out and setting: next, `CC(=O)NCCCC[C@@H](NC(=O)[C@@H](CCC(=O)O)NC(=O)[C@H](Cc1ccc(O)cc1)NC(=O)[C@H]1NC(=O)[C@H](CC(C)C)NC(=O)[C@H]([C@@H](C)O)NC(=O)[C@H](CC(=O)O)NC(=O)[C@H](CO)NC(=O)[C@H](CCCNC(=N)N)N(C)C(=O)c2ccccc2CSC1(C)C)C(N)=O` [compound 91] (HELM PEPTIDE1{[meR].S.D.T.L.[Pen].Y.[dE].[dK].[am]}|PEPTIDE2{[ac]}|CHEM1{[O=C(c1ccccc1C[*:2])[*:1]]}$PEPTIDE1,PEPTIDE2,9:R3-1:R2|PEPTIDE1,CHEM1,1:R1-1:R1|PEPTIDE1,CHEM1,6:R3-1:R2$$$V2.0): below 25 nM; `CC(C)C[C@@H]1NC(=O)[C@H]([C@@H](C)O)NC(=O)[C@H](CC(=O)O)NC(=O)[C@H](CO)NC(=O)[C@H](CCCNC(=N)N)N(C)C(=O)c2ccccc2CSC(C)(C)[C@@H](C(=O)N[C@@H](Cc2c[nH]c3ccccc23)C(=O)N[C@@H](CCC(=O)O)C(=O)N[C@@H](CN)C(N)=O)NC1=O` [compound 92] (HELM PEPTIDE1{[meR].S.D.T.L.[Pen].W.E.[NC[C@H](N[*:1])C(=O)[*:2]].[am]}|CHEM1{[O=C(c1ccccc1C[*:2])[*:1]]}$PEPTIDE1,CHEM1,1:R1-1:R1|PEPTIDE1,CHEM1,6:R3-1:R2$$$V2.0): below 25 nM.
As to `CC(C)C[C@@H]1NC(=O)[C@H]([C@@H](C)O)NC(=O)[C@H](CC(=O)O)NC(=O)[C@H](CO)NC(=O)[C@H](CCCNC(=N)N)N(C)C(=O)c2ccccc2CSC(C)(C)[C@@H](C(=O)N[C@@H](Cc2c[nH]c3ccccc23)C(=O)N[C@@H](CCC(=O)O)C(=O)N[C@@H](CCN)C(N)=O)NC1=O` [compound 93] (HELM PEPTIDE1{[meR].S.D.T.L.[Pen].W.E.[Dab].[am]}|CHEM1{[O=C(c1ccccc1C[*:2])[*:1]]}$PEPTIDE1,CHEM1,1:R1-1:R1|PEPTIDE1,CHEM1,6:R3-1:R2$$$V2.0), the IC50 under setting [1] was below 25 nM.
As to `CC(C)C[C@@H]1NC(=O)[C@H]([C@@H](C)O)NC(=O)[C@H](CC(=O)O)NC(=O)[C@H](CO)NC(=O)[C@H](CCCNC(=N)N)N(C)C(=O)c2ccccc2CSC(C)(C)[C@@H](C(=O)N[C@@H](Cc2c[nH]c3ccccc23)C(=O)N[C@H](CCC(=O)O)C(=O)N[C@@H](CN)C(N)=O)NC1=O` [compound 94] (HELM PEPTIDE1{[meR].S.D.T.L.[Pen].W.[dE].[NC[C@H](N[*:1])C(=O)[*:2]].[am]}|CHEM1{[O=C(c1ccccc1C[*:2])[*:1]]}$PEPTIDE1,CHEM1,1:R1-1:R1|PEPTIDE1,CHEM1,6:R3-1:R2$$$V2.0), the IC50 under setting [1] was below 25 nM.
On the same count and under the same terms, next, `CC(C)C[C@@H]1NC(=O)[C@H]([C@@H](C)O)NC(=O)[C@H](CC(=O)O)NC(=O)[C@H](CO)NC(=O)[C@H](CCCNC(=N)N)N(C)C(=O)c2ccccc2CSC(C)(C)[C@@H](C(=O)N[C@@H](Cc2c[nH]c3ccccc23)C(=O)N[C@H](CCC(=O)O)C(=O)N[C@@H](CCN)C(N)=O)NC1=O` [compound 95] (HELM PEPTIDE1{[meR].S.D.T.L.[Pen].W.[dE].[Dab].[am]}|CHEM1{[O=C(c1ccccc1C[*:2])[*:1]]}$PEPTIDE1,CHEM1,1:R1-1:R1|PEPTIDE1,CHEM1,6:R3-1:R2$$$V2.0): below 25 nM.
On the same count and under the same terms, next, `CC(C)C[C@@H]1NC(=O)[C@H]([C@@H](C)O)NC(=O)[C@H](CC(=O)O)NC(=O)[C@H](CO)NC(=O)[C@H](CCCNC(=N)N)N(C)C(=O)c2ccccc2CSC(C)(C)[C@@H](C(=O)N[C@@H](Cc2c[nH]c3ccccc23)C(=O)N[C@@H](CCC(=O)O)C(N)=O)NC1=O` [compound 96] (HELM PEPTIDE1{[meR].S.D.T.L.[Pen].W.E.[am]}|CHEM1{[O=C(c1ccccc1C[*:2])[*:1]]}$PEPTIDE1,CHEM1,1:R1-1:R1|PEPTIDE1,CHEM1,6:R3-1:R2$$$V2.0): below 25 nM.
